Measurements as given in patent US7172867B2, “Methods of testing for allergic diseases, and therapeutic agents for treating same” (priority 2002, dated 2007).
Entries after “also recorded” stand apart in the source; their conditions may differ. Like-named read-outs stand apart in the source and are kept apart here. Blank lines part the entries; values can stand above or below the molecule they belong to.

Key:
TR3 (Nur77) [1] = target: T1, TR3 (Nur77) (Homo sapiens, UniProt P22736); test: Mammalian two hybrid luciferase reporter system for TR3 ligand search (GAL4-TR3 LBD or full length, NIH3T3 cells, with or without RXRα); assay type: cell-based; settings: for Nur77 LBD-ligand activity RXR(+): TR3 LBD fused to GAL4, RXRα added, NIH3T3 luciferase, ◯ with concentration, X
T1 construct: expressed in transfected cells; host or cells: NIH3T3
Description: (§1) A TR3 or TINUR ligand-binding site is inserted into X, and the full-length retinoic acid X receptor (RXR) α gene is inserted into Y. These constructs are transfected into NIH3T3 cells, and the activity of induced luciferase is measured.
This was done to facilitate expression of a protein in which the DNA binding domains of TR3 and GAL4 were fused in frame. A plasmid comprising the TR3 ligand binding domain sequence inserted into pBIND, and a luciferase reporter plasmid comprising a GAL4 binding site, were co-transfected into NIH3T3 cells. Luciferase activity was measured automatically. At this time, activity was also measured by adding a retinoic acid X receptor (RXR) α-gene, which is a transcription factor that forms a heterodimer with TR3. By further adding low molecular weight substances to this system, transcriptional enhancement activity can also be used for screening.
TR3 expression is enhanced in activated eosinophils, such as in the peripheral blood of atopic dermatitis patients. Ligands existing in vivo may exist in sites where nuclear receptors are highly expressed. Therefore, small molecule lipid-soluble mediators considered to be produced under such conditions were added to the assay system, and evaluated based on their ability to enhance luciferase activity. […] In this manner, the method established by the present inventors paved the way for the high throughput discovery of native and synthetic TR3 ligands.
(§2) Thus, it was implied that prostaglandin A2 functions by acting on the LBD region of the nuclear receptor.

TINUR (Nurr1) [2] = target: T2, TINUR (Nurr1) (Homo sapiens, UniProt P43354); test: Mammalian two hybrid luciferase reporter system for TINUR ligand search (GAL4-TINUR LBD or full length, NIH3T3 cells, with or without RXRα); assay type: cell-based; settings: NIH3T3 luciferase, ◯ with concentration, X; for Full length Nurr1-ligand activity RXR(+): full length TINUR fused to GAL4, RXRα added; for Full length Nurr1-ligand activity RXR(−): full length TINUR fused to GAL4, without RXRα
T2 construct: expressed in transfected cells; host or cells: NIH3T3
Target sequence in this assay (P43354 whole entry, the tested form may be a part): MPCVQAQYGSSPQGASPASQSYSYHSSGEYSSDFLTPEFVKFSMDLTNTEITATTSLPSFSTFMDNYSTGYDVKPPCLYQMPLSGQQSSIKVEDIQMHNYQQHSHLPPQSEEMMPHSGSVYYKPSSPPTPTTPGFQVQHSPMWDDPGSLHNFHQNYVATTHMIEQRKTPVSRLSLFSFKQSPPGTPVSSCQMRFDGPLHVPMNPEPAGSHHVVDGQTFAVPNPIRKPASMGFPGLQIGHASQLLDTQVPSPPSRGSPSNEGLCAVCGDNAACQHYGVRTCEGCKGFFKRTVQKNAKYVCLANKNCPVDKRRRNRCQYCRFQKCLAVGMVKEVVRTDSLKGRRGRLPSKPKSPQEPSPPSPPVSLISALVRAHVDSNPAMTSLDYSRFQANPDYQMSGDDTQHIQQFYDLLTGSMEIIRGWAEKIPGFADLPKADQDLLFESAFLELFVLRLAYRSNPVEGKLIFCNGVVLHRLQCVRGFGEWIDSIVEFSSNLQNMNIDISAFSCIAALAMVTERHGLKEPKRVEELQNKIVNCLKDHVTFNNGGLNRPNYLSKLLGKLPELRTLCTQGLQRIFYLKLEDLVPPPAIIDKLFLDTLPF

TR3 (Nur77) [3] = target: T1, TR3 (Nur77); test: Mammalian two hybrid luciferase reporter system for TR3 ligand search (GAL4-TR3 LBD or full length, NIH3T3 cells, with or without RXRα); assay type: cell-based; settings: for Full length Nur77-ligand activity RXR(+): full length TR3 fused to GAL4, RXRα added; for Full length Nur77-ligand activity RXR(+) / Full length Nur77-ligand activity RXR(−): NIH3T3 luciferase, ◯ with concentration, X; for Full length Nur77-ligand activity RXR(−): full length TR3 fused to GAL4, without RXRα
TINUR (Nurr1) [4] = target: T2, TINUR (Nurr1); test: Mammalian two hybrid luciferase reporter system for TINUR ligand search (GAL4-TINUR LBD or full length, NIH3T3 cells, with or without RXRα); assay type: cell-based; settings: for Nurr1 LBD-ligand activity RXR(+): TINUR LBD fused to GAL4, RXRα added, NIH3T3 luciferase, ◯ with concentration, X
Description: as §1
Target sequence in this assay (P43354 360-598): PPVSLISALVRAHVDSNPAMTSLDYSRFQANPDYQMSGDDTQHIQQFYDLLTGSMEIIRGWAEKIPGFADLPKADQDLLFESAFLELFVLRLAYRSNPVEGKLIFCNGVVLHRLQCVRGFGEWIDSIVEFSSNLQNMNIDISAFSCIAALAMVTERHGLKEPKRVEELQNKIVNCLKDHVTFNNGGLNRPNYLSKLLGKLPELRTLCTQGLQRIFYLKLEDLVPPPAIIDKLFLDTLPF
A plasmid comprising the TINUR ligand binding domain sequence inserted into pBIND, and a luciferase reporter plasmid comprising a GAL4 binding site, were co-transfected into NIH3T3 cells. Luciferase activity was measured automatically. At the same time, activity measurement was also carried out by adding retinoic acid X receptor (RXR) α-gene, a transcription factor that forms a heterodimer with TINUR. Low molecular weight substances can also be added to this system to screen using transcriptional enhancement activity.
Like TR3 expression, TINUR expression is enhanced in activated eosinophils. Ligands existing in vivo may exist in sites where nuclear receptors are highly expressed. […] Ligands of the nuclear receptor subfamily are assumed to have structural redundancy. Therefore, derivatives similar to TR3 activator compounds were added, and enhancement of transcriptional activity was investigated.
as §2

TR3 LBD = target: T3, TR3 LBD (Homo sapiens, UniProt P22736); test: Binding to TR3 GST-LBD by BIAcor S51; settings: BIAcor S51, comparison with GST as a base
T3 construct: TR3 GST-LBD and TINUR GST-LBD were respectively expressed in E. coli, and then purified; made in house; host or cells: E. coli
T3 sequence (P22736 360-595 limits assumed): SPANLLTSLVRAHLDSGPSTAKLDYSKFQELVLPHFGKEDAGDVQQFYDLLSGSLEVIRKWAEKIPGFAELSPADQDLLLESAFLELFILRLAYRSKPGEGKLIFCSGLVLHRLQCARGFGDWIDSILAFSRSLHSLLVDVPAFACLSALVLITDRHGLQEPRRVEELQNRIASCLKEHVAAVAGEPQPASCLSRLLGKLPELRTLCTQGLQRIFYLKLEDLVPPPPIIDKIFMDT
Excerpt: In the present invention, a biosensor utilizing the phenomenon of surface plasmon resonance may also be used to detect or measure the bound compound. […] Therefore, biosensors such as BIACORE can be used to evaluate binding between the TR3 or TINUR protein and a test compound.

TINUR LBD = target: T4, TINUR LBD (Homo sapiens, UniProt P43354); test: Binding to TINUR GST-LBD by BIAcor S51; settings: BIAcor S51, comparison with GST as a base
T4 construct: TR3 GST-LBD and TINUR GST-LBD were respectively expressed in E. coli, and then purified; made in house; host or cells: E. coli
T4 sequence (P43354 360-595 limits assumed): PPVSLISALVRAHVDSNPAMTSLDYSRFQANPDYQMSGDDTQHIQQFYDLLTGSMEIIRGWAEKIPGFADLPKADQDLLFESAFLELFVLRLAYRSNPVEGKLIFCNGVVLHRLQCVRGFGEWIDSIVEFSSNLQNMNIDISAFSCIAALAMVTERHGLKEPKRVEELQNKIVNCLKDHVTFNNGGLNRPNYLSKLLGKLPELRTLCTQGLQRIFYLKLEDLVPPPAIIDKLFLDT

TINUR (Nurr1) [5] = test: Mammalian two hybrid luciferase reporter system for TINUR ligand search (GAL4-TINUR LBD or full length, NIH3T3 cells, with or without RXRα); assay type: cell-based, human; settings: LBD deletion mutant (ΔLBD)
[6] = system: TR3 expression in peripheral blood eosinophils; test: TR3 expression induction in cultured peripheral blood eosinophils; assay type: cell-based, human; settings: cultured peripheral blood eosinophils from healthy subjects, one to three-hour treatment

- activity of enhancing the transcription-activating ability of TR3 (luciferase reporter), in words (TR3 (Nur77) [1]): ligand activators for TR3
- Nur77 LBD-ligand activity RXR(+) (TR3 (Nur77) [1]): ◯10 μM
- Full length Nurr1-ligand activity RXR(+) (TINUR (Nurr1) [2]): ◯10 μM
- Full length Nur77-ligand activity RXR(+) (TR3 (Nur77) [3]): ◯ 3 μM
- Nurr1 LBD-ligand activity RXR(+) (TINUR (Nurr1) [4]): ◯10 μM
Molecule: CCCCC[C@H](O)/C=C/[C@H]1C=CC(=O)[C@H]1CCCCCCC(=O)O [8-isoProstaglandin A1]
- activity of activating TINUR transcription (luciferase reporter), in words (TINUR (Nurr1) [4]): ligand activators; also recorded: found to comprise the activity of activating TINUR transcription

- Nur77 LBD-ligand activity RXR(+) (TR3 (Nur77) [1]): ◯10 μM
- Full length Nurr1-ligand activity RXR(+) (TINUR (Nurr1) [2]): ◯10 μM
- Full length Nur77-ligand activity RXR(+) (TR3 (Nur77) [3]): ◯10 μM
- Full length Nur77-ligand activity RXR(−) (TR3 (Nur77) [3]): ◯10 μM
- Nurr1 LBD-ligand activity RXR(+) (TINUR (Nurr1) [4]): ◯10 μM
Molecule: CCCCC[C@@](C)(O)/C=C/[C@H]1C=CC(=O)[C@@H]1C/C=C\CCCC(=O)O [15(R)-15-methylProstaglandin A2]
- activity of enhancing the transcription-activating ability of TR3 (luciferase reporter), in words (TR3 (Nur77) [1]): ligand activators for TR3; also recorded: the activity of enhancing the transcription-activating ability of TR3 was found
- activity of activating TINUR transcription (luciferase reporter), in words (TINUR (Nurr1) [4]): ligand activators; also recorded: found to comprise the activity of activating TINUR transcription

- activity of enhancing the transcription-activating ability of TR3 (luciferase reporter), in words (TR3 (Nur77) [1]): ligand activators for TR3
- Nur77 LBD-ligand activity RXR(+) (TR3 (Nur77) [1]): ◯30 μM
- Full length Nur77-ligand activity RXR(+) (TR3 (Nur77) [3]): ◯30 μM
Molecule: CCCCC/C=C/C=C1/C=CC(=O)[C@@H]1CCCCCCC(=O)O [15-deoxy-Δ^12.14_Prostaglandin A1]

- activity of enhancing the transcription-activating ability of TR3 (luciferase reporter), in words (TR3 (Nur77) [1]): ligand activators for TR3
- Full length Nur77-ligand activity RXR(+) (TR3 (Nur77) [3]): ◯10 μM
- Full length Nur77-ligand activity RXR(−) (TR3 (Nur77) [3]): ◯10 μM
- Nurr1 LBD-ligand activity RXR(+) (TINUR (Nurr1) [4]): ◯10 μM
Molecule: CCCCC/C=C/C=C1/C(=O)C=C[C@@H]1C/C=C\CCCC(=O)O [15-deoxy-Δ^12.14_Prostaglandin J2]
- activity of activating TINUR transcription (luciferase reporter), in words (TINUR (Nurr1) [4]; listed as 15-deoxy-delta 12,14-prostaglandin J2): ligand activators; also recorded: found to comprise the activity of activating TINUR transcription

- Nur77 LBD-ligand activity RXR(+) (TR3 (Nur77) [1]): ◯10 μM
- Full length Nur77-ligand activity RXR(+) (TR3 (Nur77) [3]): ◯10 μM
- Full length Nur77-ligand activity RXR(−) (TR3 (Nur77) [3]): ◯10 μM
- Nurr1 LBD-ligand activity RXR(+) (TINUR (Nurr1) [4]): ◯10 μM
Molecule: CCCCC[C@@H](O)/C=C/[C@H]1C=CC(=O)[C@@H]1CCCCCCC(=O)O [15-epiProstaglandin A1]
- activity of enhancing the transcription-activating ability of TR3 (luciferase reporter), in words (TR3 (Nur77) [1]): ligand activators for TR3; also recorded: the activity of enhancing the transcription-activating ability of TR3 was found
- activity of activating TINUR transcription (luciferase reporter), in words (TINUR (Nurr1) [4]): ligand activators; also recorded: found to comprise the activity of activating TINUR transcription

- activity of enhancing the transcription-activating ability of TR3 (luciferase reporter), in words (TR3 (Nur77) [1]): ligand activators for TR3
- Full length Nurr1-ligand activity RXR(+) (TINUR (Nurr1) [2]): ◯30 μM
- Full length Nurr1-ligand activity RXR(−) (TINUR (Nurr1) [2]): ◯30 μM
- Full length Nur77-ligand activity RXR(−) (TR3 (Nur77) [3]): ◯30 μM
- Nurr1 LBD-ligand activity RXR(+) (TINUR (Nurr1) [4]): ◯10 μM
Molecule: O=C(O)CCC/C=C\C[C@H]1C(=O)C=C[C@@H]1/C=C/[C@@H](O)COc1ccccc1 [16-phenoxytetranorProstaglandin A2]
- activity of activating TINUR transcription (luciferase reporter), in words (TINUR (Nurr1) [4]): ligand activators; also recorded: found to comprise the activity of activating TINUR transcription

- activity of enhancing the transcription-activating ability of TR3 (luciferase reporter), in words (TR3 (Nur77) [1]): ligand activators for TR3
- Nur77 LBD-ligand activity RXR(+) (TR3 (Nur77) [1]): ◯10 μM
- Full length Nurr1-ligand activity RXR(+) (TINUR (Nurr1) [2]): ◯10 μM
- Full length Nur77-ligand activity RXR(+) (TR3 (Nur77) [3]): ◯10 μM
- Nurr1 LBD-ligand activity RXR(+) (TINUR (Nurr1) [4]): ◯10 μM
Molecule: O=C(O)CCC/C=C\C[C@H]1C(=O)C=C[C@@H]1/C=C/[C@@H](O)CCc1ccccc1 [17-phenyl trinorProstaglandin A2]
- activity of activating TINUR transcription (luciferase reporter), in words (TINUR (Nurr1) [4]): ligand activators; also recorded: found to comprise the activity of activating TINUR transcription

- binding to the LBD of TR3 (TR3 LBD): detected
- Nur77 LBD-ligand activity RXR(+) (TR3 (Nur77) [1]): ◯10 μM
- binding to the LBD of TINUR (TINUR LBD): detected
- Full length Nurr1-ligand activity RXR(+) (TINUR (Nurr1) [2]): ◯10 μM
- Full length Nurr1-ligand activity RXR(−) (TINUR (Nurr1) [2]): ◯10 μM
- Full length Nur77-ligand activity RXR(+) (TR3 (Nur77) [3]): ◯10 μM
- Full length Nur77-ligand activity RXR(−) (TR3 (Nur77) [3]): ◯10 μM
- Nurr1 LBD-ligand activity RXR(+) (TINUR (Nurr1) [4]): ◯10 μM
Molecule: CCCCC[C@H](O)/C=C/[C@H]1C=CC(=O)[C@@H]1CCCCCCC(=O)O [Prostaglandin A1]
- activity of enhancing the transcription-activating ability of TR3 (luciferase reporter), in words (TR3 (Nur77) [1]): ligand activators for TR3; also recorded: the activity of enhancing the transcription-activating ability of TR3 was found
- activity of activating TINUR transcription (luciferase reporter), in words (TINUR (Nurr1) [4]): ligand activators; also recorded: found to comprise the activity of activating TINUR transcription

- binding to the LBD of TR3 (TR3 LBD): detected
- Nur77 LBD-ligand activity RXR(+) (TR3 (Nur77) [1]): ◯10 μM
- binding to the LBD of TINUR (TINUR LBD): detected
- Full length Nurr1-ligand activity RXR(+) (TINUR (Nurr1) [2]): ◯10 μM
- Full length Nurr1-ligand activity RXR(−) (TINUR (Nurr1) [2]): ◯10 μM
- transcriptional activity with TR3 gene completely lacking an LBD region (TR3 (Nur77) [3]; LBD deletion mutant (ΔLBD)): suppressed
- Full length Nur77-ligand activity RXR(+) (TR3 (Nur77) [3]): ◯10 μM
- Full length Nur77-ligand activity RXR(−) (TR3 (Nur77) [3]): ◯10 μM
- Nurr1 LBD-ligand activity RXR(+) (TINUR (Nurr1) [4]): ◯10 μM
Molecule: CCCCC[C@H](O)/C=C/[C@H]1C=CC(=O)[C@@H]1C/C=C\CCCC(=O)O [Prostaglandin A2]
- activity of enhancing the transcription-activating ability of TR3 (luciferase reporter), in words (TR3 (Nur77) [1]): ligand activators for TR3; also recorded: the activity of enhancing the transcription-activating ability of TR3 was found
- transcriptional activity with TINUR gene completely lacking an LBD region (TINUR (Nurr1) [5]): suppressed
- activity of activating TINUR transcription (luciferase reporter), in words (TINUR (Nurr1) [4]): ligand activators; also recorded: found to comprise the activity of activating TINUR transcription

Molecule: CCCCC[C@H](O)C/C=C1/C(=O)C=C[C@@H]1C/C=C\CCCC(=O)O [Δ12-Prostaglandin J2]
- activity of enhancing the transcription-activating ability of TR3 (luciferase reporter), in words (TR3 (Nur77) [1]): the activity of enhancing the transcription-activating ability of TR3 was found

Molecule: IL-5: cytokine used for eosinophil activation
- TR3 induction [6]: did not lead to TR3 induction

B1: IL-4: cytokine used for eosinophil activation (protein, UniProt P05112 25-153, looked up)
Interleukin-4: HKCDITLQEIIKTLNSLTEQKTLCTELTVTDIFAASKNTTEKETFCRAATVLRQFYSHHEKDTRCLGATAQQFHRHKQLIRFLKRLDRNLWGLAGLNSCPVKEANQSTLENFLERLKTIMREKYSKCSS
- TR3 induction [6]: did not lead to TR3 induction
